Source: paper PMC12408681, “Tail-less precursors in synthetic cannabinoid production: investigating a clandestine laboratory, seized samples, and CB1 activity” (Archives of Toxicology, 2025)
Where “and” joins values, the source holds several entries; their conditions need not be identical. Equal entries are not always repeated.

Tests used:
human CB1 [1] = biological target: T1, human CB1 (Homo sapiens, UniProt P21554); experiment: AequoScreen CB1 intracellular Ca2+ release assay; type: cell-based; parameters: host or cells: CHO-K1 (AequoZen recombinant cell line)
Target sequence in this assay (P21554 whole entry): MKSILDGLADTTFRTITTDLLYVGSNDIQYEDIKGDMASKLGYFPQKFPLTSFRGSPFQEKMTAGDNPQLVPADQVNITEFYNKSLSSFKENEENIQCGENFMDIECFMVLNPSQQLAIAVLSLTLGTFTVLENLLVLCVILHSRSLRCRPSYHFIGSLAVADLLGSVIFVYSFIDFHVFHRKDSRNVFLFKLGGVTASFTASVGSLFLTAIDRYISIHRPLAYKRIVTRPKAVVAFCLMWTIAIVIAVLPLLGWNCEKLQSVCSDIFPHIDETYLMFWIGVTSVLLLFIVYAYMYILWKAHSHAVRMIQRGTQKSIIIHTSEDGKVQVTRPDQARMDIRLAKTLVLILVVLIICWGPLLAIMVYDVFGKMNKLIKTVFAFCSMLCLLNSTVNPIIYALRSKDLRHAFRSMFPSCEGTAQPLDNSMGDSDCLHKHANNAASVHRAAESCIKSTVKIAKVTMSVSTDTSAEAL

human CB1 [2] = biological target: T1, human CB1; experiment: NanoBiT CB1 β-arrestin 2 recruitment assay; type: cell-based; parameters: expressed in transfected cells; conditions: for Efficacy (Emax) Mean Diff: CP55,940 as reference
Target sequence in this assay (P21554 whole entry): as above
Target sequence in this assay (P32121 whole entry partner): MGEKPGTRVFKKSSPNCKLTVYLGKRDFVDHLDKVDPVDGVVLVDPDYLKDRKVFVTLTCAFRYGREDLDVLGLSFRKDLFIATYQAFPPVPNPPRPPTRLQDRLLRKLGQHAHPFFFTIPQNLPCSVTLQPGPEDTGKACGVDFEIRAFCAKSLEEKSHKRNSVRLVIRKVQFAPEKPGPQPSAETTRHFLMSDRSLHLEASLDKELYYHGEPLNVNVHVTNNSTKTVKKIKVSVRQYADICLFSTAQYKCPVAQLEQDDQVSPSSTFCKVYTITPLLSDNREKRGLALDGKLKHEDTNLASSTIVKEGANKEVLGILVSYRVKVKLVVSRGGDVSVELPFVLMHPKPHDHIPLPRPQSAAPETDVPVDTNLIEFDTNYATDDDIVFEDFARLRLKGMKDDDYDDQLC

[3] = test system: paclitaxel-induced peripheral neuropathy; parameters: method as in one study (reference not given); conditions: rats; ref one study (reference not given); cited from earlier work
[4] = Table 4, reference standards and mixtures, total SCRA concentration
[5] = Table 5, Ref (reference standard)
[6] = Table 5, Ref (reference standard), read-out: Potency (EC50, nM) AequoScreen
[7] = Table 5, Ref (reference standard), read-out: Potency (EC50, nM) β-arrestin 2
[8] = vs 5% MDMB-4en-PINACA, only concentration of final product in mixture
[9] = vs 5% MDMB-4en-PINACA, total concentration of SCRAs in mixture
[10] = vs 25% MDMB-4en-PINACA, only concentration of final product in mixture
[11] = vs 25% MDMB-4en-PINACA, total concentration of SCRAs in mixture
[12] = vs 50% MDMB-4en-PINACA, only concentration of final product in mixture
[13] = vs 50% MDMB-4en-PINACA, total concentration of SCRAs in mixture
[14] = vs 75% MDMB-4en-PINACA, only concentration of final product in mixture
[15] = vs 75% MDMB-4en-PINACA, total concentration of SCRAs in mixture
[16] = Potency (EC50, nM) AequoScreen, Table 4, reference standards and mixtures, total SCRA concentration, n ≥ 3
[17] = Potency (EC50, nM) AequoScreen, Table 5, Ref (reference standard)
[18] = Potency (EC50, nM) β-arrestin 2, Table 4, reference standards and precursor:final SCRA mixtures, total (combined) SCRA concentration, n ≥ 3
[19] = Potency (EC50, nM) β-arrestin 2, Table 5, Ref (reference standard)

With `COC(=O)[C@@H](NC(=O)c1n[nH]c2ccccc12)C(C)(C)C` [MDMB-INACA (ref)] the “Efficacy (Emax) Mean Diff” value (human CB1 [1]; vs MDMB-INACA (seizure), CP55,940 as reference) was 1.797 and the “Efficacy (Emax) Mean Diff” value (human CB1 [2]; vs MDMB-INACA (seizure)) was -144.0.

For `CC(C)(C)C(NC(=O)c1n[nH]c2ccccc12)C(N)=O` (stereo not shown) [ADB-INACA], the “Analgesic effects on paclitaxel-induced peripheral neuropathy” value [3] is listed as “analgesic effects”.

In the case of `CCCCCn1cc(C(=O)c2cccc3ccccc23)c2ccccc21` [JWH-018, reference compound], the “Efficacy (% of JWH-018) Emax AequoScreen” value (human CB1 [1]; [4]) is reported as 97.6 % of JWH-018, the EC50 (human CB1 [1]; Table 4, reference standards and mixtures, total SCRA concentration, n ≥ 3, read-out: Potency (EC50, nM) AequoScreen) is reported as 5.14 nM and the “Efficacy (% of JWH-018) Emax AequoScreen” value (human CB1 [1]; [5]) is reported as 99.8 % of JWH-018. The EC50 (human CB1 [1]; [6]) was 13.5 nM, the “Efficacy (% of CP55,940) Emax β-arrestin 2” value (human CB1 [2]; [4]) was 335 % of CP55,940 and the EC50 (human CB1 [2]; Table 4, reference standards and precursor:final SCRA mixtures, total (combined) SCRA concentration, n ≥ 3, read-out: Potency (EC50, nM) β-arrestin 2) was 9.55 nM. For the same compound, the “Efficacy (% of CP55,940) Emax β-arrestin 2” value (human CB1 [2]; [5]) was 352 % of CP55,940 and the EC50 (human CB1 [2]; [7]) was 11 nM.

In the case of `COC(=O)[C@@H](NC(=O)c1n[nH]c2ccccc12)C(C)(C)C` [100% MDMB-INACA], the “Efficacy (Emax) Mean Diff” value (human CB1 [1]; vs 5% MDMB-4en-PINACA, only concentration of final product in mixture, JWH-018 as reference) is reported as 2.037, the “Efficacy (Emax) Mean Diff” value (human CB1 [1]; vs 5% MDMB-4en-PINACA, total concentration of SCRAs in mixture, JWH-018 as reference) is reported as 6.744 and the “Efficacy (Emax) Mean Diff” value (human CB1 [1]; vs 25% MDMB-4en-PINACA, only concentration of final product in mixture, JWH-018 as reference) is reported as -0.07601. The “Efficacy (Emax) Mean Diff” value (human CB1 [1]; vs 25% MDMB-4en-PINACA, total concentration of SCRAs in mixture, JWH-018 as reference) was 2.036, the “Efficacy (Emax) Mean Diff” value (human CB1 [1]; vs 50% MDMB-4en-PINACA, only concentration of final product in mixture, JWH-018 as reference) was 9.030 and the “Efficacy (Emax) Mean Diff” value (human CB1 [1]; vs 50% MDMB-4en-PINACA, total concentration of SCRAs in mixture, JWH-018 as reference) was -0.07656. For the same compound, the “Efficacy (Emax) Mean Diff” value (human CB1 [1]; vs 75% MDMB-4en-PINACA, only concentration of final product in mixture, JWH-018 as reference) was 6.745, the “Efficacy (Emax) Mean Diff” value (human CB1 [1]; vs 75% MDMB-4en-PINACA, total concentration of SCRAs in mixture, JWH-018 as reference) was 9.029 and the “Efficacy (Emax) Mean Diff” value (human CB1 [1]; vs 100% MDMB-4en-PINACA, only concentration of final product in mixture, JWH-018 as reference) was 8.229. For the same compound, the “Efficacy (Emax) Mean Diff” value (human CB1 [1]; vs 100% MDMB-4en-PINACA, total concentration of SCRAs in mixture, JWH-018 as reference) was 8.229, the “Efficacy (Emax) Mean Diff” value (human CB1 [2]; [8]) was 550.8 and the “Efficacy (Emax) Mean Diff” value (human CB1 [2]; [9]) was 539.7. For the same compound, the “Efficacy (Emax) Mean Diff” value (human CB1 [2]; [10]) was 569.4, the “Efficacy (Emax) Mean Diff” value (human CB1 [2]; [11]) was 560.7 and the “Efficacy (Emax) Mean Diff” value (human CB1 [2]; [12]) was 558.2. For the same compound, the “Efficacy (Emax) Mean Diff” value (human CB1 [2]; [13]) was 545.8, the “Efficacy (Emax) Mean Diff” value (human CB1 [2]; [14]) was 521.9 and the “Efficacy (Emax) Mean Diff” value (human CB1 [2]; [15]) was 510.6. For the same compound, the “Efficacy (Emax) Mean Diff” value (human CB1 [2]; vs 100% MDMB-4en-PINACA, only concentration of final product in mixture) was 536.7 and the “Efficacy (Emax) Mean Diff” value (human CB1 [2]; vs 100% MDMB-4en-PINACA, total concentration of SCRAs in mixture) was 536.7.

For `C=CCCCn1nc(C(=O)NC(C(=O)OC)C(C)(C)C)c2ccccc21` (stereo not shown) [MDMB-4en-PINACA, methyl 3,3-dimethyl-2-(1-(pent-4-en-1-yl)-1H-indazole-3-carboxamido)butanoate], the EC50 (human CB1 [1]; [16]) was 1.2 nM and 1.17 nM, the EC50 (human CB1 [1]; [17]) was 1.89 nM and the “Efficacy (% of JWH-018) Emax AequoScreen” value (human CB1 [1]; [4]) was 104 % of JWH-018. The “Efficacy (% of JWH-018) Emax AequoScreen” value (human CB1 [1]; [5]) was 109 % of JWH-018, the EC50 (human CB1 [2]; [18]) was 1.8 nM and the EC50 (human CB1 [2]; [19]) was 1.8 nM. For the same compound, the “Efficacy (% of CP55,940) Emax β-arrestin 2” value (human CB1 [2]; [4]) was 1088 % of CP55,940 and 1090 % of CP55,940 and the “Efficacy (% of CP55,940) Emax β-arrestin 2” value (human CB1 [2]; [5]) was 1090 % of CP55,940.

In the case of `CCCCn1nc(C(=O)NC(C(N)=O)C(C)(C)C)c2ccccc21` (stereo not shown) [ADB-BUTINACA], the EC50 (human CB1 [1]; [16]) is reported as 5.6 nM and 5.64 nM, the EC50 (human CB1 [1]; [17]) is reported as 7.27 nM and the “Efficacy (% of JWH-018) Emax AequoScreen” value (human CB1 [1]; [4]) is reported as 105 % of JWH-018. The “Efficacy (% of JWH-018) Emax AequoScreen” value (human CB1 [1]; [5]) was 111 % of JWH-018, the EC50 (human CB1 [2]; [18]) was 6.7 nM and 6.73 nM and the EC50 (human CB1 [2]; [19]) was 5.65 nM. The “Efficacy (% of CP55,940) Emax β-arrestin 2” value (human CB1 [2]; [4]) was 1282 % of CP55,940 and 1280 % of CP55,940 and the “Efficacy (% of CP55,940) Emax β-arrestin 2” value (human CB1 [2]; [5]) was 1330 % of CP55,940.

For `CCCCn1nc(C(=O)N[C@H](C(N)=O)C(C)(C)C)c2ccccc21` [100% ADB-BUTINACA], the “Efficacy (Emax) Mean Diff” value (human CB1 [2]; vs 5% ADB-BUTINACA, only concentration of final product in mixture) was 76.63, the “Efficacy (Emax) Mean Diff” value (human CB1 [2]; vs 5% ADB-BUTINACA, total concentration of SCRAs in mixture) was 98.60 and the “Efficacy (Emax) Mean Diff” value (human CB1 [2]; vs 25% ADB-BUTINACA, only concentration of final product in mixture) was 52.66. For the same compound, the “Efficacy (Emax) Mean Diff” value (human CB1 [2]; vs 25% ADB-BUTINACA, total concentration of SCRAs in mixture) was 66.35, the “Efficacy (Emax) Mean Diff” value (human CB1 [2]; vs 50% ADB-BUTINACA, only concentration of final product in mixture) was 144.9 and the “Efficacy (Emax) Mean Diff” value (human CB1 [2]; vs 50% ADB-BUTINACA, total concentration of SCRAs in mixture) was 155.6. For the same compound, the “Efficacy (Emax) Mean Diff” value (human CB1 [2]; vs 75% ADB-BUTINACA, only concentration of final product in mixture) was 60.28 and the “Efficacy (Emax) Mean Diff” value (human CB1 [2]; vs 75% ADB-BUTINACA, total concentration of SCRAs in mixture) was 70.25.

In the case of `COC(=O)C(NC(=O)c1n[nH]c2ccccc12)C(C)(C)C` (stereo not shown) [MDMB-INACA], the EC50 (human CB1 [1]; [6]) is listed as 11200 nM, the EC50 (human CB1 [1]; Table 5, Seizure (precursor seized in Switzerland), read-out: Potency (EC50, nM) AequoScreen) is listed as 7610 nM and the “Analgesic effects on paclitaxel-induced peripheral neuropathy” value [3] is listed as “analgesic effects”. For the same compound, the “Efficacy (% of CP55,940) Emax β-arrestin 2” value (human CB1 [2]; [5]) was 294 % of CP55,940, the EC50 (human CB1 [2]; [7]) was 2400 nM and the “Efficacy (% of CP55,940) Emax β-arrestin 2” value (human CB1 [2]; Table 5, Seizure (precursor seized in Switzerland)) was 438 % of CP55,940. For the same compound, the EC50 (human CB1 [2]; Table 5, Seizure (precursor seized in Switzerland), read-out: Potency (EC50, nM) β-arrestin 2) was 2190 nM.

For `C=CCCCn1nc(C(=O)N[C@H](C(=O)OC)C(C)(C)C)c2ccccc21` [100% MDMB-4en-PINACA], the “Efficacy (Emax) Mean Diff” value (human CB1 [2]; [8]) was -14.08, the “Efficacy (Emax) Mean Diff” value (human CB1 [2]; [9]) was -3.010 and the “Efficacy (Emax) Mean Diff” value (human CB1 [2]; [10]) was -32.68. The “Efficacy (Emax) Mean Diff” value (human CB1 [2]; [11]) was -24.05, the “Efficacy (Emax) Mean Diff” value (human CB1 [2]; [12]) was -21.46 and the “Efficacy (Emax) Mean Diff” value (human CB1 [2]; [13]) was -9.133. The “Efficacy (Emax) Mean Diff” value (human CB1 [2]; [14]) was 14.76 and the “Efficacy (Emax) Mean Diff” value (human CB1 [2]; [15]) was 26.09.
